Experimental data reported in ChEMBL document CHEMBL3580609, “Novel phthalimide derivatives with TNF- and IL-1 expression inhibitory and apoptotic inducing properties” (Medchemcomm, 2014).
The source made the active and inactive calls. The calls are words filed in the database; no cut-off is given here.

Legend:
[1] = system: Peritoneal macrophage cell; experiment: Inhibition of TNFalpha production in LPS-induced mouse peritoneal macrophages at 50 uM incubated for 24 hrs by sandwich ELISA method; format: functional, cell-based
[2] = system: Peritoneal macrophage cell; experiment: Inhibition of IL-1beta production in LPS-induced mouse peritoneal macrophages at 50 uM incubated for 24 hrs by sandwich ELISA method; format: functional, cell-based
Jurkat [3] = experiment: Inhibition of TNFalpha expression in human Jurkat cells containing GFP gene under control of TNF gene promoter at 100 uM incubated for 24 hrs; format: functional
Jurkat [4] = experiment: Inhibition of TNFalpha expression in human Jurkat cells containing GFP gene under control of TNF gene promoter at 10 uM incubated for 24 hrs; format: functional
Jurkat [5] = experiment: Induction of total cell death in human Jurkat cells containing GFP gene under control of TNF gene promoter at 10 uM incubated for 24 hrs by propidium iodide staining based assay
Jurkat [6] = experiment: Induction of apoptosis in human Jurkat cells at 10 uM incubated for 24 hrs by FITC-labeled capsase-3 substrate based Nucview-488 caspase-3 assay; format: functional, cell-based
Jurkat [7] = experiment: Induction of apoptosis in human Jurkat cells at 100 uM incubated for 24 hrs by FITC-labeled capsase-3 substrate based Nucview-488 caspase-3 assay; format: functional, cell-based
Jurkat [8] = experiment: Inhibition of TNFalpha expression in human Jurkat cells containing GFP gene under control of TNF gene promoter at 100 uM incubated for 24 hrs relative to thalidomide; format: functional
Jurkat [9] = experiment: Inhibition of TNFalpha expression in human Jurkat cells containing GFP gene under control of TNF gene promoter incubated for 24 hrs; format: functional, cell-based
Jurkat [10] = experiment: Induction of total cell death in human Jurkat cells containing GFP gene under control of TNF gene promoter at 100 uM incubated for 24 hrs by propidium iodide staining based assay
Mus musculus [11] = organism: Mus musculus; experiment: Reduction in serum cholesterol levels in Swiss white mouse after 16 days; format: functional
Mus musculus [12] = organism: Mus musculus; experiment: Reduction in serum triglyceride levels in Swiss white mouse after 14 days; format: functional
Jurkat [13] = experiment: Inhibition of TNFalpha expression in human Jurkat cells containing GFP gene under control of TNF gene promoter at 10 uM incubated for 24 hrs relative to thalidomide; format: functional

SMILES: C[C@@H](C(=O)N/N=C\c1ccccc1)N1C(=O)c2ccccc2C1=O
- inhibition [1]: Active
- inhibition [2]: Active
- inhibition at 100 µM (Jurkat [3]): 9.8%
- inhibition at 10 µM (Jurkat [4]): 9.8%
- Activity (Jurkat [5]): Non-toxic
- Activity (Jurkat [6]): inactive
- Activity (Jurkat [7]): inactive

SMILES: O=C(N/N=C\c1ccccc1)[C@H](Cc1ccccc1)N1C(=O)c2ccccc2C1=O
- inhibition [1]: Active
- inhibition [2]: Active
- inhibition at 100 µM (Jurkat [3]): 17%
- inhibition (Jurkat [4]): inactive
- fold change (FC) (Jurkat [8]): 3
- inhibition (Jurkat [9]): Dose-dependent effect
- Activity (Jurkat [10]): Toxic

SMILES: COc1ccc(/C=N\NC(=O)[C@H](C)N2C(=O)c3ccccc3C2=O)cc1
- inhibition [1]: Active
- inhibition [2]: Active

SMILES: CC[C@H](C)[C@@H](C(=O)N/N=C\c1ccc(Cl)cc1)N1C(=O)c2ccccc2C1=O
- inhibition [1]: Active
- inhibition [2]: Active
- inhibition (Jurkat [3]): Active
- inhibition at 10 µM (Jurkat [4]): 13%
- Activity (Jurkat [10]): Toxic
- Activity (Jurkat [6]): Active
- Activity (Jurkat [7]): Active

SMILES: CCOC(=O)[C@H](C)N1C(=O)c2ccccc2C1=O
- inhibition [1]: Active
- inhibition [2]: Active

SMILES: CC[C@H](C)[C@@H](C(=O)N/N=C\c1ccc(Cl)c(Cl)c1)N1C(=O)c2ccccc2C1=O
- inhibition [1]: Active
- inhibition [2]: Active
- inhibition at 100 µM (Jurkat [3]): 17%
- inhibition (Jurkat [4]): inactive
- fold change (FC) (Jurkat [8]): 3
- inhibition (Jurkat [9]): Dose-dependent effect
- Activity (Jurkat [5]): Non-toxic
- Activity (Jurkat [10]): Toxic

SMILES: COc1ccc(/C=N\NC(=O)[C@H](Cc2ccccc2)N2C(=O)c3ccccc3C2=O)cc1
- inhibition [1]: Active
- inhibition [2]: Active

SMILES: CC[C@H](C)[C@@H](C(=O)N/N=C\c1ccc(OC)cc1)N1C(=O)c2ccccc2C1=O
- inhibition [1]: Active
- inhibition [2]: Active

SMILES: C[C@@H](C(=O)O)N1C(=O)c2ccccc2C1=O
- inhibition [1]: Active
- inhibition [2]: Active

SMILES: NNC(=O)[C@H](Cc1ccccc1)N1C(=O)c2ccccc2C1=O
- inhibition [1]: Active
- inhibition [2]: Active

SMILES: CC(=O)c1ccccc1N1C(=O)c2ccccc2C1=O
- inhibition (INH) (Mus musculus [11]): 57%
- inhibition (INH) (Mus musculus [12]): 44%

SMILES: C[C@@H](C(=O)NN)N1C(=O)c2ccccc2C1=O
- inhibition [1]: Active
- inhibition [2]: Active

SMILES: O=C1CCC(N2C(=O)c3ccccc3C2=O)C(=O)N1 (configuration not stated) [THALIDOMIDE]
- inhibition [1]: Active
- inhibition [2]: Active
- inhibition at 100 µM (Jurkat [3]): 5%
- inhibition at 10 µM (Jurkat [4]): 5%
- Activity (Jurkat [5]): 2%
- Activity (Jurkat [10]): 2%

SMILES: O=C(N/N=C\c1ccc(Cl)c(Cl)c1)[C@H](Cc1ccccc1)N1C(=O)c2ccccc2C1=O
- inhibition (Jurkat [3]): Active
- inhibition (Jurkat [4]): Active
- Activity (Jurkat [10]): Toxic

SMILES: C[C@@H](C(=O)N/N=C\c1ccc(Cl)cc1)N1C(=O)c2ccccc2C1=O
- inhibition (Jurkat [3]): Active
- inhibition (Jurkat [4]): Active

SMILES: C[C@@H](C(=O)N/N=C\c1ccc(Cl)c(Cl)c1)N1C(=O)c2ccccc2C1=O
- inhibition (Jurkat [3]): Active
- inhibition (Jurkat [4]): Active

SMILES: CCOC(=O)[C@H]([C@@H](C)CC)N1C(=O)c2ccccc2C1=O
- inhibition [1]: Active
- inhibition [2]: Active

SMILES: CCOC(=O)[C@H](Cc1ccccc1)N1C(=O)c2ccccc2C1=O
- inhibition [1]: Active
- inhibition [2]: Active

SMILES: O=C(N/N=C\c1ccc(Cl)cc1)[C@H](Cc1ccccc1)N1C(=O)c2ccccc2C1=O
- inhibition (Jurkat [3]): Active
- inhibition (Jurkat [4]): Active

SMILES: Nc1cccc2c1CN(C1CCC(=O)NC1=O)C2=O (configuration not stated) [LENALIDOMIDE]
- inhibition at 100 µM (Jurkat [3]): 14%
- inhibition at 10 µM (Jurkat [4]): 14%
- fold change (FC) (Jurkat [8]): 2
- fold change (FC) (Jurkat [13]): 2
- Activity (Jurkat [5]): Non-toxic
- Activity (Jurkat [10]): Non-toxic
- Activity (Jurkat [6]): Active
- Activity (Jurkat [7]): Active

SMILES: CC[C@H](C)[C@@H](C(=O)N/N=C\c1ccccc1)N1C(=O)c2ccccc2C1=O
- inhibition [1]: Active
- inhibition [2]: Active
- inhibition (Jurkat [3]): Active
- inhibition (Jurkat [4]): Active
- Activity (Jurkat [5]): Non-toxic
